From patent publication US8497278B2, “Imidazo[1,2-a]pyridine compounds” (priority 2008, dated 2013)

Each compound was assayed on central benzodiazepine receptors (assay: Central benzodiazepine receptor binding (test of Speth et al.)). Conditions: 1000 nM of the compound.
Procedure: Compounds of the invention were assessed for their binding to the benzodiazepine receptor by the test of Speth et al. [Life Sci. 24, 351 (1979)] for central benzodiazepine receptors and LeFur et al. [Life Sci. 33, 449 (1983)] for peripheral receptors. The compounds were tested first at 1.0E-09, 1.0E-07 and 1.0E-05 M in single determination. […] The specific ligand binding to the receptor is defined as the difference between the total binding and the nonspecific binding determined in the presence of an excess of unlabelled ligand. In each experiment, the respective reference compound was tested concurrently with the test compounds in order to assess the assay suitability. It was tested at several concentrations (for IC50 value determination), and the data were compared with historical values. The assay was rendered valid if suitability criteria were met.
BZD central binding data for the compounds is provided in Table 3, wherein is provided the percent inhibition of central BZD in the presence of 1000 nM of the compound.

SMILES	% Inhibition at 1000 nM for CBZD
Cc1cccc(=O)n1Cc1c(-c2ccc(Cl)cc2)nc2ccc(Cl)cn12 [Compound 107, 1-((6-chloro-2-(4-chlorophenyl)H-imidazo[1,2-a]pyridin-3-yl)methyl)-6-methylpyridin-2(1H)-one]	++ (percentage of inhibition of central BZD site binding is greater than 80% in the presence of 1000 nM of the compound)
O=c1ccc(Cl)cn1Cc1c(-c2ccc(Cl)cc2)nc2ccc(Cl)cn12 [Compound 108, 5-chloro-1-((6-chloro-2-(4-chlorophenyl)H-imidazo[1,2-a]pyridin-3-yl)methyl)pyridin-2(1H)-one]	++ (percentage of inhibition of central BZD site binding is greater than 80% in the presence of 1000 nM of the compound)
Cc1cccn(Cc2c(-c3ccc(Cl)cc3)nc3ccc(Cl)cn23)c1=O [Compound 109, 1-((6-chloro-2-(4-chlorophenyl)H-imidazo[1,2-a]pyridin-3-yl)methyl)-3-methylpyridin-2(1H)-one]	++ (percentage of inhibition of central BZD site binding is greater than 80% in the presence of 1000 nM of the compound)
O=C1OCCN1Cc1c(-c2ccc(Cl)cc2)nc2ccc(Cl)cn12 [Compound 111, 3-((6-chloro-2-(4-chlorophenyl)H-imidazo[1,2-a]pyridin-3-yl)methyl)oxazolidin-2-one]	++ (percentage of inhibition of central BZD site binding is greater than 80% in the presence of 1000 nM of the compound)
O=C1CCCN1Cc1c(-c2ccc(Cl)cc2)nc2ccc(Cl)cn12 [Compound 112, 1-((6-chloro-2-(4-chlorophenyl)H-imidazo[1,2-a]pyridin-3-yl)methyl)pyrrolidin-2-one]	++ (percentage of inhibition of central BZD site binding is greater than 80% in the presence of 1000 nM of the compound)
O=C1CCN1Cc1c(-c2ccc(Cl)cc2)nc2ccc(Cl)cn12 [Compound 113, 1-[6-Chloro-2-(4-chloro-phenyl)-imidazo[1,2-a]pyridin-3-ylmethyl]-azetidin-2-one]	++ (percentage of inhibition of central BZD site binding is greater than 80% in the presence of 1000 nM of the compound)
Cc1ccc(-c2nc3c(Cl)cc(Cl)cn3c2CN2CCCC2=O)cc1 [Compound 116, 1-(6,8-Dichloro-2-p-tolyl-imidazo[1,2-a]pyridin-3-ylmethyl)-pyrrolidin-2-one]	++ (percentage of inhibition of central BZD site binding is greater than 80% in the presence of 1000 nM of the compound)
Cc1ccc(-c2nc3c(Cl)cc(Cl)cn3c2Cn2nc(C)ccc2=O)cc1 [Compound 117, 2-(6,8-Dichloro-2-p-tolyl-imidazo[1,2-a]pyridin-3-ylmethyl)-6-methyl-2H-pyridazin-3-one]	++ (percentage of inhibition of central BZD site binding is greater than 80% in the presence of 1000 nM of the compound)
O=c1ccccn1Cc1c(-c2ccc(Cl)cc2)nc2ccc(F)cn12 [Compound 122, 1-((2-(4-chlorophenyl)-6-fluoroimidazo[1,2-a]pyridin-3-yl)methyl)pyridin-2(1H)-one]	++ (percentage of inhibition of central BZD site binding is greater than 80% in the presence of 1000 nM of the compound)
O=C1COc2ccccc2N1Cc1c(-c2ccc(Cl)cc2)nc2ccccn12 [Compound 124, 4-((2-(4-chlorophenyl)imidazo[1,2-a]pyridin-3-yl)methyl)-2H-benzo[b][1,4]oxazin-3(4H)-one]	++ (percentage of inhibition of central BZD site binding is greater than 80% in the presence of 1000 nM of the compound)
CCOC(=O)c1cn(Cc2c(-c3ccc(Cl)cc3)nc3ccccn23)c(=O)[nH]c1=O [Compound 126, Ethyl 1-((2-(4-chlorophenyl)imidazo[1,2-a]pyridin-3-yl)methyl)-2,4-dioxo-1,2,3,4-tetrahydropyrimidine-5-carboxylate]	− (percentage of inhibition of central BZD site binding is less than 50% in the presence of 1000 nM of the compound)
CSc1nsc(=S)n1Cc1c(-c2ccc(C)cc2)nc2ccc(C)cn12 [Compound 129, 3-Methylsulfanyl-4-(6-methyl-2-p-tolyl-imidazo[1,2-a]pyridin-3-ylmethyl)-4H-[1,2,4]thiadiazole-5-thione]	++ (percentage of inhibition of central BZD site binding is greater than 80% in the presence of 1000 nM of the compound)
Cc1ccc(-c2nc3ccc(C)cn3c2Cn2c(C)c(C)sc2=S)cc1 [Compound 130, 4,5-Dimethyl-3-(6-methyl-2-p-tolyl-imidazo[1,2-a]pyridin-3-ylmethyl)-3H-thiazole-2-thione]	++ (percentage of inhibition of central BZD site binding is greater than 80% in the presence of 1000 nM of the compound)
Cc1ccc(-c2nc3ccc(C)cn3c2Cn2ccsc2=S)cc1 [Compound 131, 3-((6-Methyl-2-p-tolylH-imidazo[1,2-a]pyridin-3-yl)methyl)thiazole-2(3H)-thione]	++ (percentage of inhibition of central BZD site binding is greater than 80% in the presence of 1000 nM of the compound)
CCNc1ccn(Cc2c(-c3ccc(Cl)cc3)nc3ccccn23)c(=O)n1 [Compound 132, 1-((2-(4-chlorophenyl)imidazo[1,2-a]pyridin-3-yl)methyl)-4-(ethylamino)pyrimidin-2(1H)-one]	++ (percentage of inhibition of central BZD site binding is greater than 80% in the presence of 1000 nM of the compound)
CN(C)CCNc1ccn(Cc2c(-c3ccc(Cl)cc3)nc3ccccn23)c(=O)n1 [Compound 134, 1-((2-(4-chlorophenyl)imidazo[1,2-a]pyridin-3-yl)methyl)-4-(2-(dimethylamino)ethylamino)pyrimidin-2(1H)-one]	++ (percentage of inhibition of central BZD site binding is greater than 80% in the presence of 1000 nM of the compound)
Cc1ccc(-c2nc3ccc(C)cn3c2CNc2ccccn2)cc1 [Compound 140, N-((6-methyl-2-p-tolylH-imidazo[1,2-a]pyridin-3-yl)methyl)pyridin-2-amine]	++ (percentage of inhibition of central BZD site binding is greater than 80% in the presence of 1000 nM of the compound)
Cc1ccc(-c2nc3ccc(C)cn3c2CNc2nccc(C)n2)cc1 [Compound 143, 4-methyl-N-((6-methyl-2-p-tolylH-imidazo[1,2-a]pyridin-3-yl)methyl)pyrimidin-2-amine]	++ (percentage of inhibition of central BZD site binding is greater than 80% in the presence of 1000 nM of the compound)
Cc1ccc(-c2nc3ccc(C)cn3c2CNc2cnccn2)cc1 [Compound 144, N-((6-methyl-2-p-tolylH-imidazo[1,2-a]pyridin-3-yl)methyl)pyrazin-2-amine]	++ (percentage of inhibition of central BZD site binding is greater than 80% in the presence of 1000 nM of the compound)
Cc1ccc(-c2nc3ccc(C)cn3c2CNc2ncncn2)cc1 [Compound 146, (6-Methyl-2-p-tolyl-imidazo[1,2-a]pyridin-3-ylmethyl)-[1,3,5]triazin-2-yl-amine]	++ (percentage of inhibition of central BZD site binding is greater than 80% in the presence of 1000 nM of the compound)
Cc1ccc(-c2nc3ccc(C)cn3c2CNc2nc(C)cc(C)n2)cc1 [Compound 148, 4,6-dimethyl-N-((6-methyl-2-p-tolylH-imidazo[1,2-a]pyridin-3-yl)methyl)pyrimidin-2-amine]	++ (percentage of inhibition of central BZD site binding is greater than 80% in the presence of 1000 nM of the compound)
Cc1ccc(-c2nc3ccc(C)cn3c2CNc2ccon2)cc1 [Compound 149, N-((6-methyl-2-p-tolylH-imidazo[1,2-a]pyridin-3-yl)methyl)isoxazole-3-amine]	++ (percentage of inhibition of central BZD site binding is greater than 80% in the presence of 1000 nM of the compound)
Cc1ccc(-c2nc3ccc(C)cn3c2CNc2cc(C)ns2)cc1 [Compound 151, 3-methyl-N-((6-methyl-2-p-tolylH-imidazo[1,2-a]pyridin-3-yl)methyl)isothiazol-5-amine]	++ (percentage of inhibition of central BZD site binding is greater than 80% in the presence of 1000 nM of the compound)
Cc1ccc(-c2nc3ccc(C)cn3c2CNn2cnnc2)cc1 [Compound 152, (6-methyl-2-p-tolylH-imidazo[1,2-a]pyridin-3-yl)-N-(4H-1,2,4-triazol-4-yl)methanamine]	+ (percentage of inhibition of central BZD site binding is greater than 50% but less than 80% in the presence of 1000 nM of the compound)
Cc1ccc(-c2nc3ccc(C)cn3c2CNc2ncc[nH]2)cc1 [Compound 153, N-((6-methyl-2-p-tolyl-H-imidazo[1,2-a]pyridin-3-yl)methyl)-1H-imidazol-2-amine]	++ (percentage of inhibition of central BZD site binding is greater than 80% in the presence of 1000 nM of the compound)
Cc1ccc(-c2nc3ccc(C)cn3c2CNc2nc3ccccc3n2C)cc1 [Compound 154, 1-methyl-N-((6-methyl-2-p-tolylH-imidazo[1,2-a]pyridin-3-yl)methyl)-1H-benzo[d]imidazol-2-amine]	++ (percentage of inhibition of central BZD site binding is greater than 80% in the presence of 1000 nM of the compound)
Cc1ccc(-c2nc3ccc(C)cn3c2CNn2c(C)nc3ccccc3c2=O)cc1 [Compound 155, 2-Methyl-3-[(6-methyl-2-p-tolyl-imidazo[1,2-a]pyridin-3-ylmethyl)-amino]-3H-quinazolin-4-one]	+ (percentage of inhibition of central BZD site binding is greater than 50% but less than 80% in the presence of 1000 nM of the compound)
